{"source": "paper PMC6378217", "about": "“The lysyl oxidase like 2/3 enzymatic inhibitor, PXS‐5153A, reduces crosslinks and ameliorates fibrosis” (Journal of Cellular and Molecular Medicine, 2018)", "key": {"Recombinant human LOXL3": {"target": "T1, Recombinant human LOXL3 (Homo sapiens, UniProt P58215)", "T1 construct": "purchased R&D Systems", "T1 sequence (P58215 26-753)": "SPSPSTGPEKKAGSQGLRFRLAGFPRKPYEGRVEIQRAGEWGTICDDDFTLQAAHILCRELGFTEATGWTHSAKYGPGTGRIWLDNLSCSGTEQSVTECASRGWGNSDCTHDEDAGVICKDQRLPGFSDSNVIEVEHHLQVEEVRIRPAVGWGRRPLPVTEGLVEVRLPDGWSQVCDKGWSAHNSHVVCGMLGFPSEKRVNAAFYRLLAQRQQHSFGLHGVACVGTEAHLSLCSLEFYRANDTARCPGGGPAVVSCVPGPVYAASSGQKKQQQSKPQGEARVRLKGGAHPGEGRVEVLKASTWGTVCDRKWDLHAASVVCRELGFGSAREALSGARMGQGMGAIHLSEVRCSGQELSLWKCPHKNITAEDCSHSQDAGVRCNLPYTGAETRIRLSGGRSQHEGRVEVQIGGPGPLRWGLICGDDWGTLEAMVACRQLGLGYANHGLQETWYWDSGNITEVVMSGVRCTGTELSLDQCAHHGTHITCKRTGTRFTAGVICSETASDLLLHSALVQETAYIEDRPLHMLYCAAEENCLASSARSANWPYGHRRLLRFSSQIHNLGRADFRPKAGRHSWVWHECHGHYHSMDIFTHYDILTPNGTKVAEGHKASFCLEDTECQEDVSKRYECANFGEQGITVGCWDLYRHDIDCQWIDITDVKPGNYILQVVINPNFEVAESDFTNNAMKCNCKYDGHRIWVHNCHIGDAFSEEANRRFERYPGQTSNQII", "test": "Amplex-Red fluorometric enzymatic activity assay, recombinant human LOXL3", "format": "biochemical", "conditions": "30 minute pre-incubation; average of at least three experiments", "procedure": "(§1) The measurement of the enzymatic activity of all lysyl oxidase family members was based on the detection of hydrogen peroxide with an Amplex‐Red oxidation assay, as described in Zhou et al26 Recombinant human semicarbazide sensitive amine oxidase (SSAO/VAP1), diamine oxidase (DAO) and monoamine oxidases A and B (MAO‐A and MAO‐B) assays were performed as previously described.27 For detailed enzymatic procedures, see supporting information.\n(§2) The measurement of the enzymatic activity of all lysyl oxidase family members was based on the detection of hydrogen peroxide with an Amplex-Red oxidation assay, as described in Zhou et al.[1]; miniaturised in 384 well format, with the appropriate combination of substrate and assay buffer for each individual enzyme. After a 30 minute pre-incubation of the enzyme at 37 °C with the test compound (or with different incubation times for the time-dependency assay), one volume of reaction mixture containing 120 μM Amplex Red (AR) (Life Technologies), 1.5 U/mL horseradish peroxidase (HRP) (Sigma-Aldrich) and the specific substrate was added to each sample. The relative fluorescence units (RFU) were then measured every 2.5 minutes for 30 minutes at 37°C, excitation 565 nm and emission 590, on a BMG Clariostar Microplate Reader. […]"}, "LOXL2 [1]": {"tested_on": "LOXL2", "test": "LOXL2 enzymatic activity across all mammalian species tested", "format": "biochemical", "procedure": "as §1, §2"}, "Adrenergic α1A": {"target": "Adrenergic α1A (Rattus norvegicus, UniProt P43140)", "sequence (P43140 whole entry)": "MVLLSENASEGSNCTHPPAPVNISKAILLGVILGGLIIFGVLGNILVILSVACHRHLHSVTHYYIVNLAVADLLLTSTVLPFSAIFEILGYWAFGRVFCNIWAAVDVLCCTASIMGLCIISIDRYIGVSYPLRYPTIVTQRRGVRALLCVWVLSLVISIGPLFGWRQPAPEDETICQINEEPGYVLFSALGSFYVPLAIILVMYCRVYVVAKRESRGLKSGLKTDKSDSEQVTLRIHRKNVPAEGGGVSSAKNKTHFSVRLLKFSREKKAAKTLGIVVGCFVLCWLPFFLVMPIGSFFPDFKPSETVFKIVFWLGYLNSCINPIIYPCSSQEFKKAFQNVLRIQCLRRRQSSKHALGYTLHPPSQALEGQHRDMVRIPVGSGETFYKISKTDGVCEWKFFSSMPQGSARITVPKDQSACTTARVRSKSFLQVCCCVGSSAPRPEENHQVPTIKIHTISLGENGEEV", "test": "Eurofins Hit Profiling Screen", "format": "binding", "conditions": "10 μmol/L"}, "[2]": {"tested_on": "Calcium Channel L-Type, Dihydropyridine", "test": "Eurofins Hit Profiling Screen", "format": "binding, rat", "conditions": "10 μmol/L"}, "Cannabinoid CB1": {"target": "Cannabinoid CB1 (Homo sapiens, UniProt P21554)", "sequence (P21554 whole entry)": "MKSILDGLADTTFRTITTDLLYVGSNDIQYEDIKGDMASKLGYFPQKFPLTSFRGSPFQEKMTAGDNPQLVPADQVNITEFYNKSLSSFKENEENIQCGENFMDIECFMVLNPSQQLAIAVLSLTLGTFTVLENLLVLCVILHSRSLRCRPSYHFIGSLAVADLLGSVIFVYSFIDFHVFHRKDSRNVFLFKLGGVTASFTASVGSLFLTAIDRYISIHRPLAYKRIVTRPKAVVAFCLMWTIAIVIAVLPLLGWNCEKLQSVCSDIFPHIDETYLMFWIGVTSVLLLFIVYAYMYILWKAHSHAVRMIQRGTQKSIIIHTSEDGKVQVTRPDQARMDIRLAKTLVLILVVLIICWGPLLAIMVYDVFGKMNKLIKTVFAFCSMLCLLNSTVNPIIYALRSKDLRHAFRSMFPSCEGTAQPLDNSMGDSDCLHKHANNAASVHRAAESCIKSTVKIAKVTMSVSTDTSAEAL", "test": "Eurofins Hit Profiling Screen", "format": "binding", "conditions": "10 μmol/L"}, "Dopamine D2S": {"target": "Dopamine D2S (Homo sapiens, UniProt P14416)", "sequence (P14416 1-414 isoform P14416-2)": "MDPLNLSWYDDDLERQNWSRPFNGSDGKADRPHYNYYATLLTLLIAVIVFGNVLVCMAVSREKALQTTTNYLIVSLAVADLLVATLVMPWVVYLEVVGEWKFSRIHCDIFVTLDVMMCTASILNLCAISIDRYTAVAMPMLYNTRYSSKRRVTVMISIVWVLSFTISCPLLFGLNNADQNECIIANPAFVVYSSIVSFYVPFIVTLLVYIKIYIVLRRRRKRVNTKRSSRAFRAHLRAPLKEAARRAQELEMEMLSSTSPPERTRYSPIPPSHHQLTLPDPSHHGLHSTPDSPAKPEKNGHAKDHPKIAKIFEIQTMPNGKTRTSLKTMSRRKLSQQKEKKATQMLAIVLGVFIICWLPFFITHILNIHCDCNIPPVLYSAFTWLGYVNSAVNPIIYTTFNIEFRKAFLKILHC", "test": "Eurofins Hit Profiling Screen", "format": "binding", "conditions": "10 μmol/L"}, "Muscarinic M3": {"target": "Muscarinic M3 (Homo sapiens, UniProt P20309)", "sequence (P20309 whole entry)": "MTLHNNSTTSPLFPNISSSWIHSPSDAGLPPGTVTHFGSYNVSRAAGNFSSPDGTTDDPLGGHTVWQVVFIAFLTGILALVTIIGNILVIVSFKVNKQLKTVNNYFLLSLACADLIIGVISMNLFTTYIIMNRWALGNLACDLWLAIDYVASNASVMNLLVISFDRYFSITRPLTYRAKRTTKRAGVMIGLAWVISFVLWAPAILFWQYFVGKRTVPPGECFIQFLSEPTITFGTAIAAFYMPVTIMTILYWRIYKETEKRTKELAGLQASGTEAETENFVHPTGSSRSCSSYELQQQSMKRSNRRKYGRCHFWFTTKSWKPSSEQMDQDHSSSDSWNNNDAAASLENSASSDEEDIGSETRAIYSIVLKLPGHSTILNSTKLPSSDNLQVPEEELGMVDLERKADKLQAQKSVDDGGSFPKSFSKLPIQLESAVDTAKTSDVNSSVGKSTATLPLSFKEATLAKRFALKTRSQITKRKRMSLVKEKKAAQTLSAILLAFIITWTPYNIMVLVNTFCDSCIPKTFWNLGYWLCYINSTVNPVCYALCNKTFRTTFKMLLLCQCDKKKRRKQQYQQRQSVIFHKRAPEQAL", "test": "Eurofins Hit Profiling Screen", "format": "binding", "conditions": "10 μmol/L"}, "[3]": {"target": "Transporter, Norepinephrine (NET) (Homo sapiens, UniProt P23975)", "sequence (P23975 whole entry)": "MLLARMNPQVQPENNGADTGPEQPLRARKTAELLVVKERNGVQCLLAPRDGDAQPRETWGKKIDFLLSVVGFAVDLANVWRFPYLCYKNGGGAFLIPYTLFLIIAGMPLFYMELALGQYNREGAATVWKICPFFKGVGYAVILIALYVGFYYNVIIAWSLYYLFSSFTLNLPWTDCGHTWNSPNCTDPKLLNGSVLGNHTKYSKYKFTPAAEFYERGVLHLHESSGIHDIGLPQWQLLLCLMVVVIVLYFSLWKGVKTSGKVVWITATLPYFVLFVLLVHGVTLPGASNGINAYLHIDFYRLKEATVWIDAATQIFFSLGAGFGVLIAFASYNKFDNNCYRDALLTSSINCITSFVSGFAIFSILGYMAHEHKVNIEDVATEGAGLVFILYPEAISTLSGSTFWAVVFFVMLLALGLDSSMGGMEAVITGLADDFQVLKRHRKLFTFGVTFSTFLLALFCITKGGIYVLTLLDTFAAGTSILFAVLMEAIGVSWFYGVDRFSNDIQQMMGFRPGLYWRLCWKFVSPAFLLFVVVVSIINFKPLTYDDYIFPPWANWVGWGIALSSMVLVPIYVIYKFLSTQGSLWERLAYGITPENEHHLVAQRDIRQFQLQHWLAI", "test": "Eurofins Hit Profiling Screen", "format": "binding", "conditions": "10 μmol/L"}, "LOXL2 [4]": {"target": "T2, LOXL2 (Homo sapiens, UniProt Q9Y4K0)", "T2 sequence (Q9Y4K0 26-774)": "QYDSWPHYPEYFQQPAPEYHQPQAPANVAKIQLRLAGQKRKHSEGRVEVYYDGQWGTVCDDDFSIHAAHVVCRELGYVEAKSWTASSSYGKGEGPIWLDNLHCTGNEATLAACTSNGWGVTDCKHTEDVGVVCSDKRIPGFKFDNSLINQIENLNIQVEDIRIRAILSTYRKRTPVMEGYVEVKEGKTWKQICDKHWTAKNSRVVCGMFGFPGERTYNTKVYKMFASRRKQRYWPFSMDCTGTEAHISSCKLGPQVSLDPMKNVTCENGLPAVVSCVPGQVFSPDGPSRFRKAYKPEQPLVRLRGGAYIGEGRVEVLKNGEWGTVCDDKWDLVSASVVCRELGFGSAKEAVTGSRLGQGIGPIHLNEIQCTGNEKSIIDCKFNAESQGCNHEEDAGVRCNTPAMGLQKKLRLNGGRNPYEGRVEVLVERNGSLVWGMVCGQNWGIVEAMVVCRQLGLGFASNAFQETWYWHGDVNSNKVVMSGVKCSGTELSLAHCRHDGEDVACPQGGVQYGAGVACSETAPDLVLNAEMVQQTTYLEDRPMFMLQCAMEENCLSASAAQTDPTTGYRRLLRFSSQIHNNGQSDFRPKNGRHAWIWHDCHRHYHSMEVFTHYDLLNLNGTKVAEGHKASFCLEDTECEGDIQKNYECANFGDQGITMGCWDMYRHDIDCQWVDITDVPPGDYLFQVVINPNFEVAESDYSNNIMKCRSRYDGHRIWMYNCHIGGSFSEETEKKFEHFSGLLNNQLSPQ", "test": "Collagen oxidation assay", "format": "biochemical", "set-up": "purchased R&D Systems", "conditions": "20 nmol/L rhLOXL2, different concentrations of PXS-5153A, slope at 20-40 minute", "procedure": "Collagen oxidation assay was based on the release of hydrogen peroxide as previously described27 and detailed in the supporting information. Briefly, collagen was combined with rhLOXL2 with or without the pan‐lysyl oxidase inhibitor BAPN (β‐aminoproprionitrile, 100 μmol/L, Sigma‐Aldrich) or PXS‐5153A. An Amplex reaction mixture was added into each well. The slope per minute of the kinetic curves for each sample was calculated using MARS data analysis software (BMG labtech) in the linear phase (between the 20 and 40 minute time points).\nCollagen oxidation assay was based on the release of hydrogen peroxide as described previously described. In a 384 black well plate, 25 μL of collagen (rat tail, type I, Thermo Fisher, 1.5 mg/mL in 50 mM sodium borate buffer, pH 8.2) was combined with 25 μL rhLOXL2 (R&D Systems) with or without the pan-lysyl oxidase inhibitor BAPN (100 μM, Sigma-Aldrich) or PXS-5153A. A reaction mixture using AR (120 μM; Life Technologies), HRP (1.5 U/mL; Sigma-Aldrich) was prepared in 50 mM sodium borate buffer. […] The relative fluorescence units (RFU) were read every 1 minute for 3 hours at 37°C, excitation 565 nm and emission 590 (Clariostar, BMG labtech). The slope per minute of the kinetic curves for each sample was calculated using MARS data analysis software (BMG labtech) in the linear phase (between the 20-40 minute time points)."}}}
{"compound": "Cc1c(-c2cccc(S(=O)(=O)N(C)C)c2)c2ncccc2n1C/C(F)=C/CN.Cl.Cl", "note": "[PXS-5153A]", "values": [{"measurement": "IC50", "setting": "Recombinant human LOXL3", "value": 0.063, "unit": "µM"}, {"measurement": "pIC50 ± SD", "setting": "Recombinant human LOXL3", "value": "7.2 ± 0.23"}, {"measurement": "IC50", "setting": "LOXL2 [1]", "value": "< 0.04", "unit": "µM"}, {"measurement": "% inhibition", "setting": "Adrenergic α1A", "value": 20, "unit": "%"}, {"measurement": "% inhibition", "setting": "[2]", "value": 80, "unit": "%"}, {"measurement": "% inhibition", "setting": "Cannabinoid CB1", "value": 17, "unit": "%"}, {"measurement": "% inhibition", "setting": "Dopamine D2S", "value": 10, "unit": "%"}, {"measurement": "% inhibition", "setting": "Muscarinic M3", "value": 9, "unit": "%"}, {"measurement": "% inhibition", "setting": "[3]", "value": 15, "unit": "%"}, {"measurement": "collagen oxidation", "setting": "LOXL2 [4]", "value": "impeding collagen oxidation"}]}
